Test results reported in US8012959B2, “Diaminopyrimidinecarboxamide derivative” (Astellas Pharma Inc., priority 2002, dated 2011).
Where a name gives a salt, the structure may show the parent alone.

How the values were obtained:
[1] = biological target: T1, STAT 6 (Mus musculus, UniProt P52633); test: STAT 6-dependent reporter activity (IL-4-stimulated CI/FW4 luciferase reporter cell); type: cell-based, human; conditions: for inhibition at 0.1 µM / Inh (%) 0.1 μM: inhibition ratio at 0.1 μM compound; for inhibition at 0.1 µM / inhibition at 1 µM / Inh (%) 0.1 μM / Inh (%) 1 μM: IL-4-stimulated CI/FW4 cell, luciferase; for inhibition at 1 µM / Inh (%) 1 μM: inhibition ratio at 1 μM compound; for inhibition of STAT 6-dependent reporter activity (activity similar to the compounds of Table 26): CI/FW4 cell, 10 ng/ml human IL-4, luciferase
T1 construct: An STAT 6 reporter cell CI/FW4 was constructed by the above operation; endogenous in cells; host or cells: CI/FW4 (FW4 cell stably carrying the pGL2-CI/bs luciferase reporter)
T1 sequence (P52633 1-837): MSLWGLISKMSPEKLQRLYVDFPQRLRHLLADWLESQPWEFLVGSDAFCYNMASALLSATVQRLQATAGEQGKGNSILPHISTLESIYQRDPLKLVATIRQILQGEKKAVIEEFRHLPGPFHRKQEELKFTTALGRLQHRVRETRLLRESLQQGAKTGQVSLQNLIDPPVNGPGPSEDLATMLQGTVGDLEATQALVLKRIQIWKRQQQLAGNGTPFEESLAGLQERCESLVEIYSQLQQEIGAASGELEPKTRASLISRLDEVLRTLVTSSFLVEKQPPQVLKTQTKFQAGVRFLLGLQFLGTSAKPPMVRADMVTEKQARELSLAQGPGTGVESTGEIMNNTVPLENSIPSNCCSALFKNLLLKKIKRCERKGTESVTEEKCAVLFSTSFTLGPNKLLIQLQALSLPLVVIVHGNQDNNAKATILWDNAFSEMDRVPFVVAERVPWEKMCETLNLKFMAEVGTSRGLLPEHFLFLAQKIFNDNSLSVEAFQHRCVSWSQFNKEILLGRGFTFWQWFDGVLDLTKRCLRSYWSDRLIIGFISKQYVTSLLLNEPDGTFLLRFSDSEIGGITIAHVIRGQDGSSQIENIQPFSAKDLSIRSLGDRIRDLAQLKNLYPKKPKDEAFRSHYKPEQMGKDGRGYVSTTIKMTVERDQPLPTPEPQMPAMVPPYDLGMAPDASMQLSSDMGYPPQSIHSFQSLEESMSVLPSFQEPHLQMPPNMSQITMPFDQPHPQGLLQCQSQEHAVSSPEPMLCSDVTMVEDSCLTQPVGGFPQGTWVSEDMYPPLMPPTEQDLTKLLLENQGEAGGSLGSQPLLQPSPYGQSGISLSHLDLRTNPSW
Description: Measurement of STAT 6-Dependent Reporter Activity 1) Construction of STAT 6 Reactive Reporter Plasmid A STAT 6 reporter plasmid pGL2-CI was prepared by the following method. […] Also, […] sequence DNA molecules (SEQ ID NOs:3 and 4) contained in the adenovirus major late promoter were annealed and inserted into BglII and HindIII sites of the same vector. Thereafter, pGL2-CI/bs was constructed by inserting the blasticidin resistance gene of pUCSV-BD (Funakoshi) into BamHI site of the constructed pGL2-CI. 2) Construction of STAT 6 Reporter Cell Gene transfer of […] into a human IL-4 reactive cell FW4 cell (Mol. Cell. Biol., 14: 5433-5440) was carried out by the electroporation method (320 V, 960 μF/0.4 cm cuvette (Nippon Bio-Rad Laboratories)), and 6 μg/ml of blasticidin (Funakoshi) was added 40 hours thereafter to select a resistant cell. Confirmation of constant transfer of the reporter plasmid was carried out by detecting luciferase induce by IL-4 stimulation. An STAT 6 reporter cell CI/FW4 was constructed by the above operation. 3) STAT Reporter Assay Using CI/FW4 Cell Stimulation of the CI/FW4 cell (1×10^4 cells/0.1 ml) with 10 ng/ml of human IL-4 (Genzyme Techne) was carried out using a white 96 well plate (Nunc). In the case of the evaluation of compounds, compound dilutions were added to the wells before inoculating the cells into the 96 well plate. […] Thereafter, 50 μl of a luciferase substrate solution (10 mM Tris-HCl pH 7.8, 5 mM luciferin, 2 mM coenzyme A, 2 mM ATP, 0.5 mM MgCl2 and 2 mM Mg(OH)2) was added, followed by stirring for 1 minute. Then, the luciferase activity was measured using ML3000 luminometer (Dynatech Laboratories, Inc). Inhibitory activities of tested compounds were evaluated in which the luminescence intensity (relative light unit: […] The results are shown in the following Table 26.

[2] = biological target: T2, STAT 6 (Homo sapiens, UniProt P42226); test: STAT 6 tyrosine phosphorylation in IL-4-stimulated H292 cell (western blotting); type: cell-based; conditions: 1 μM compound, 10 ng/ml human IL-4, disappearance of the about 110 kDa band
T2 construct: host or cells: H292
T2 sequence (P42226 1-847): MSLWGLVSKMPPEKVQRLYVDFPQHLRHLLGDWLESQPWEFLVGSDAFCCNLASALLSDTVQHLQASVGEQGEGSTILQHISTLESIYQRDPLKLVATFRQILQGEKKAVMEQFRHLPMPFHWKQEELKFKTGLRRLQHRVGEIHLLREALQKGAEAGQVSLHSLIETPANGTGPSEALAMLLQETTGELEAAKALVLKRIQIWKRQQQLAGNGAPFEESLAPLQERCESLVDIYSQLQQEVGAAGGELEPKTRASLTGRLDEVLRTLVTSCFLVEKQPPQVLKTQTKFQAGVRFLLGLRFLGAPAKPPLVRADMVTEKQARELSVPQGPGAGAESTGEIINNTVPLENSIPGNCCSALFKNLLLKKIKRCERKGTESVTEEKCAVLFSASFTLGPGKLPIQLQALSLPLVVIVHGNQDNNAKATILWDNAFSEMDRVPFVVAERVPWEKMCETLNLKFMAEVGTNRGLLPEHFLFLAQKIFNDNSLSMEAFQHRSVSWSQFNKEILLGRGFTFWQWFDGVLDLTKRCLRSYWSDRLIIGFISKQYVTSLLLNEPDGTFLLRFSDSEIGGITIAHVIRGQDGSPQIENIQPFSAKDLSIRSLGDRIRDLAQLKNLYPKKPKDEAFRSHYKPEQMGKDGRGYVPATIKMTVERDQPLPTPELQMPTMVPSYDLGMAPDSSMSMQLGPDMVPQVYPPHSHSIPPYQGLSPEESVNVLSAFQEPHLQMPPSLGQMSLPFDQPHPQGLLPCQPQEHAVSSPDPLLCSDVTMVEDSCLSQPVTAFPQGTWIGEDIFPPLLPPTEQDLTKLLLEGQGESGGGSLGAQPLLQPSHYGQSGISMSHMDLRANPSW
Description: Measurement of STAT 6 Tyrosine Phosphorylation
The H292 cell (ATCC) (5×10^5 cells/0.5 ml) was inoculated into a 12 well plate (IWAKI) and cultured overnight, and then stimulation with 10 ng/ml of human IL-4 (Genzyme techne) was carried out. In the case of the evaluation of compounds, compound dilutions were added to the wells 20 minutes before the IL-4 stimulation. Also, regarding the dilution of compounds, dilution was carried out using 10% FBS-containing RPMI 1640 such that the final concentration of DMSO in which each compound was dissolved became 0.1% or less. This was washed three times with ice-cooled physiological phosphate buffer 20 minutes after the IL-4 stimulation. After the washing, 100 μl/well of a cell lysis solution (TNE buffer: 10 mM Tris-HCl pH 7.8, 1% NP-40, 0.15 M NaCl, 1 mM EDTA, 10 μg/ml aprotinin, 1 mM NaF and 1 mM Na3VO4) was added. The cell lysate was recovered, and 15 μl thereof was subjected to western blotting after SDS electrophoresis using an anti-tyrosine phosphorylated STAT 6 antibody (Cell Signaling). Whether or not the tyrosine phosphorylation band of about 110 kDa is disappeared, which is IL-4 stimulation-dependently detected, was judged. Also, uniform transference of the STAT 6 protein was confirmed using the same transfer membrane by western blotting which used an anti-STAT 6 antibody (SantaCruz).

Row | SMILES | inhibition at 0.1 µM [1] [%] | inhibition at 1 µM [1] [%] | Inh (%) 0.1 μM [1] [%] | Inh (%) 1 μM [1] [%] | inhibition of STAT 6-dependent reporter activity (activity similar to the compounds of Table 26) [1] | inhibition of STAT 6 tyrosine phosphorylation [2]
1 | CNC(=O)c1cnc(NCCc2cc(Cl)c(O)c(Cl)c2)nc1Nc1cccc(C)c1 [Example 2, 2-{[2-(3,5-dichloro-4-hydroxyphenyl)ethyl]amino}-N-methyl-4-[(3-methylphenyl)amino]pyrimidine-5-carboxamide] | 48 | 96 | – | – | – | –
2 | NC(=O)c1cnc(Nc2ccc(N3CCOCC3)cc2)nc1NCc1cc(Cl)ccc1F [Example 39] | – | – | 100 | 100 | – | –
3 | NC(=O)c1cnc(Nc2ccc(N3CCOCC3)cc2)nc1NCc1c(F)cccc1Cl [Example 58] | – | – | – | – | good activity | –
4 | CN(C)CC(=O)N1CCN(c2ccc(Nc3ncc(C(N)=O)c(NCc4ccccc4)n3)cc2)CC1.Cl.Cl [Example 148] | – | – | 94 | 100 | – | completely inhibited
5 | CN(CC1CN(c2ccc(Nc3ncc(C(N)=O)c(NCc4ccccc4)n3)cc2)CCO1)S(C)(=O)=O.Cl (stereo not drawn) [Example 180] | – | – | 91 | 100 | – | –
6 | CCOC(=O)CN1CCN(c2ccc(Nc3ncc(C(N)=O)c(NCc4c(F)ccc(F)c4F)n3)cc2)CC1 [Example 189] | – | – | 100 | 100 | – | completely inhibited
7 | NC(=O)c1cnc(Nc2ccc(N3CCN(CC(=O)O)CC3)cc2)nc1NCc1c(F)ccc(F)c1F [Example 190] | – | – | 100 | 100 | – | completely inhibited
8 | Cl.NC(=O)c1cnc(Nc2ccc(N3CCCOCC3)cc2)nc1NCc1c(F)ccc(F)c1F [Example 191] | – | – | 100 | 100 | – | completely inhibited
9 | COC1CCCN(c2ccc(Nc3ncc(C(N)=O)c(NCc4c(F)ccc(F)c4F)n3)cc2)C1.Cl.Cl (stereo not drawn) [Example 192] | – | – | 100 | 100 | – | completely inhibited
10 | Cl.Cl.NC(=O)CN1CCN(c2ccc(Nc3ncc(C(N)=O)c(NCc4c(F)ccc(F)c4F)n3)cc2)CC1 [Example 201] | – | – | 100 | 100 | – | completely inhibited
11 | NC(=O)c1cnc(Nc2ccc(OC3OC(CO)C(O)C(O)C3O)cc2)nc1NCc1c(F)ccc(F)c1F (stereo not drawn) [Example 233] | – | – | 25 | 100 | – | –

The next lines start with the values.

Row | inhibition at 0.1 µM [1] [%] | inhibition at 1 µM [1] [%] | Inh (%) 0.1 μM [1] [%] | Inh (%) 1 μM [1] [%] | inhibition of STAT 6-dependent reporter activity (activity similar to the compounds of Table 26) [1] | inhibition of STAT 6 tyrosine phosphorylation [2] | SMILES
12 | – | – | – | – | good activity | – | NC(=O)c1cnc(Nc2ccc(N3CCOCC3)c(F)c2)nc1NCc1ccccc1 [Example 239]
13 | – | – | 97 | 100 | – | – | NC(=O)c1cnc(Nc2ccc(N3CCOCC3)c(F)c2)nc1NCc1c(F)cccc1F [Example 244]
14 | 67 | 100 | – | – | – | – | Cc1cccc(Nc2nc(NCCc3ccc(O)c(Br)c3)ncc2C(N)=O)c1 [Production Example 1, 2-{[2-(3-bromo-4-hydroxyphenyl)ethyl]amino}-4-[(3-methylphenyl)amino]pyrimidine-5-carboxamide]
15 | 33 | 91 | – | – | – | – | Cc1cccc(Nc2nc(Nc3ccc(CN(C)C)cc3)ncc2C(N)=O)c1 [Production Example 9, 2-({4-[(dimethylamino)methyl]phenyl}amino)-4-[(3-methylphenyl)amino]pyrimidine-5-carboxamide dihydrochloride]
16 | 91 | 100 | – | – | – | – | NC(=O)c1cnc(Nc2ccc(N3CCOCC3)cc2)nc1NC1CCCCC1 [Production Example 12, 4-cyclohexylamino-2-[(4-morpholinophenyl)amino]pyrimidine-5-carboxamide]
